SMILES strings stand for the structures. Some results are limits rather than exact numbers.

Data set [1] concerns enterovirus strain 6. The experiment in a line: microbe, parasite or virus in culture. Particulars: inhibition of viral CPE; for inhibition at 0.01 µM: 10 nM, read-out: Inh. at 10 nM, EV6; for inhibition at 0.1 µM: 100 nM, read-out: Inh. at 100 nM, EV6. It is filed as cell-based.
The test system of data set [2] is enterovirus strain 30. The experiment in a line: Antiviral CPE inhibition assay in mammalian cell culture, EV30. Type of data set: cell-based. The settings on record: inhibition of viral CPE; for inhibition at 0.01 µM: 10 nM, read-out: Inh. at 10 nM, EV30; for inhibition at 0.1 µM: 100 nM, read-out: Inh. at 100 nM, EV30.
For data set [3], the system named is enterovirus D68. The experiment in a line: Antiviral CPE inhibition assay in mammalian cell culture, EV-D68. Particulars: Enterovirus D, EVD68, inhibition of viral CPE; for inhibition at 0.01 µM: 10 nM, read-out: Inh. at 10 nM, EV-D68; for inhibition at 0.1 µM: 100 nM, read-out: Inh. at 100 nM, EV-D68. Type of data set: cell-based.
Data set [4] has as its system enterovirus strain 71. The experiment in a line: Antiviral CPE inhibition assay in mammalian cell culture, EV71. Particulars: inhibition of viral CPE; for inhibition at 0.01 µM: 10 nM, read-out: Inh. at 10 nM, EV71; for inhibition at 0.1 µM: 100 nM, read-out: Inh. at 100 nM, EV71. Type of data set: cell-based.
In data set [5] the test system is coxsackie B virus strain 1. Briefly: Antiviral CPE inhibition assay in mammalian cell culture, Cox B1. It is filed as cell-based. Particulars: for inhibition at 0.01 µM: read-out: Inh. at 10 nM, Cox B1; for inhibition at 0.1 µM: read-out: Inh. at 100 nM, Cox B1.
The test system of data set [6] is coxsackie B virus strain 2. Briefly: Antiviral CPE inhibition assay in mammalian cell culture, Cox B2. It is filed as cell-based. The settings on record: for inhibition at 0.01 µM: read-out: Inh. at 10 nM, Cox B2; for inhibition at 0.1 µM: read-out: Inh. at 100 nM, Cox B2.
Data set [7] relates to coxsackie B virus strain 3. Briefly: Antiviral CPE inhibition assay in mammalian cell culture, Cox B3. Particulars: for inhibition at 0.01 µM: read-out: Inh. at 10 nM, Cox B3; for inhibition at 0.1 µM: read-out: Inh. at 100 nM, Cox B3. It is filed as cell-based.
Data set [8] concerns coxsackie B virus strain 5. Briefly: Antiviral CPE inhibition assay in mammalian cell culture, Cox B5. Type of data set: cell-based. Particulars: for inhibition at 0.01 µM: read-out: Inh. at 10 nM, Cox B5; for inhibition at 0.1 µM: read-out: Inh. at 100 nM, Cox B5.
Data set [9] has as its system polio virus strain 1. Briefly: organism not typed. Type of data set: cell-based. Particulars: for inhibition at 0.01 µM: read-out: Inh. at 10 nM, Polio 1; for inhibition at 0.1 µM: read-out: Inh. at 100 nM, Polio 1.
Data set [10] deals with T1, CYP3A4 (Homo sapiens, UniProt P08684).
T1 construct: from tissue; host or cells: human liver microsomes
Briefly: In vitro CYP 3A4 enzyme inhibition in human liver microsomes by probe substrate method. Particulars: human liver microsomes 0.5 mg/mL; probe substrate Midazolam 5 μM. It is filed as in vitro ADME. How it is done: In Vitro CYP 3A4 Enzyme Inhibition Study in Human Liver Microsomes by Probe Substrate Method
In vitro CYP3A4 enzyme inhibition assay was performed using Human liver microsomes at 0.5 mg/mL concentration. Ketoconazole was used as reference inhibitor and Midazolam was used as selective probe substrate for CYP 3A4 enzyme. Serial dilution of test/control items was prepared in potassium phosphate buffer (50 mM, pH 7.40) to obtain eight concentrations each in a 1:4 dilution pattern. The percentage of acetonitrile/DMSO was maintained at 2.5%/0.25% in 2.5× serially diluted control/test item solutions respectively. The final percentage of acetonitrile/DMSO was 1%/0.1% respectively. Intermediate solutions such as 10× working solution (5 mg/mL) of Human liver microsomal solution, 10× concentration of reference probe substrates in buffer, 5× concentrations of Cofactors (5.0 mM NADP+, 25.0 mM G-6-P, 3.0 IU/mL G-6-PDH and 10.0 mM MgCl2) were prepared in potassium phosphate buffer. The final concentration of liver microsomes in the reaction mixture was 0.5 mg/mL, cofactors was 1.0 mM NADP+, 5.0 mM G-6-P, 0.6 IU/mL G-6-PDH and 2.0 mM MgCl2. Midazolam was tested at 5 μM test concentration. 40 μL of 2.5× serially diluted test/control item solutions and 10 μL of […] liver microsomal solution were added to 96 well plate and incubated for 10 min at 37° C. with shaking condition (400 rpm) using Thermomixer. After pre incubation, 20 μL of potassium phosphate buffer, 10 μL of respective probe substrate working solution and 20 μL of cofactor mix was added.

Data set [11] can be described thus: in vivo. Also noted: species or system Sprague Dawley rats. The settings on record: male, Sprague Dawley, rat, po, 10 mg/kg. How it is done:
10 mg of the compound was weighed and transferred to graduated tube. Then 500 μL of DMA (5% v/v) was added, vortex mixed thoroughly and sonicated till test item was completely dissolved. Then 5 mL of PEG 200 (50% v/v) were added, and vortex mixed thoroughly. Thereafter, Sterile Water for Injection (SWFI) was added in small increments and vortex mixed thoroughly. Finally, the volume was made up to 10 mL with SWFI (45% v/v) to obtain a clear solution with final formulation strength of 1 mg/mL. […] Formulation was freshly prepared before the administration to animals. Adult healthy male Sprague Dawley rats aged 8-10 weeks were used for experimentation after a minimum 3 days of acclimation. Fasted animals were administered with test compound in recommended vehicle (5% DMA+50% PEG 200+45% SWFI) by oral route at a dose of 10 mg/kg body weight and at dose volume of 10 mL/kg body weight. Under mild isoflurane anesthesia, blood specimens were collected into pre-labeled tubes containing anticoagulant (K2EDTA—2 mg/mL blood) at different time points post dose.

Data set [12] can be described thus: Metabolic stability in human liver microsomes. It is filed as in vitro ADME. The settings on record: 5 μM test item, 0.25 mg/mL microsomal protein. Here is the method:
(§1) Metabolic stability assay was carried out using Human/Rat liver microsomes. […] Test item/Control items were incubated with Human/Rat liver microsomes with cofactors and without cofactors. The reaction mixture (100 μL) was removed at specified time period and the reaction was stopped by addition of stop solution. The samples were extracted in presence of internal standard and were analyzed using LC-MS/MS. The percent of the test/Control item remaining after specified incubation period was calculated with respect to the peak area ratio at time 0 min. […] The reaction mixture was incubated further at 37° C. for specified incubation time points (With Cofactors: 0, 15, 30, 60 and 120 min; Without Cofactors: 0 and 120 min). 100 μL incubation samples of test items and Control items at specified incubation time points were transferred to respective tubes for sample extraction. Test and Control item specimens were extracted by Protein precipitation method. A 100 μL incubation sample at each time point was added to tubes containing 200 μL of ice-cold acetonitrile and 50 μL Haloperidol solution (0.5 μg/mL). Then the tubes were vortex mixed thoroughly and centrifuged at 10000 rpm for 10 minutes at 4° C. A clear supernatant of 200 μL of samples were submitted for LC-MS/MS analysis.
(In general: Liver microsomes are vesicles of endoplasmic reticulum, rich in cytochrome P450 enzymes.)

Data set [13] in a line: Metabolic stability in rat liver microsomes. Particulars: 5 μM test item, 0.25 mg/mL microsomal protein. It is filed as in vitro ADME. Here is the method:
as §1

Data set [14] is described as follows: Human plasma protein binding (Rapid Equilibrium Dialysis). It is filed as in vitro ADME. The settings on record: pH 7.4, RED device, 37° C. Here is the method:
(§2) Plasma protein binding study was performed using a Rapid Equilibrium Dialysis (RED) device containing dialysis membrane with a molecular weight cut-off of 8,000 Daltons. Each dialysis insert contained two chambers. The red chamber was for the plasma while the white chamber was for the buffer. Test items and Control items (Warfarin and Propranolol) were prepared at a required test concentration of 10 μM in Human/Rat plasma (pH adjusted to 7.40) using 10 mM DMSO stocks (final DMSO concentration was 0.1%). 300 μL of plasma sample was added into the sample chamber. 500 μL of buffer was added into the buffer chamber. After sealing the RED device with an adhesive film, incubation was done at 37° C. with shaking at 300 rpm for 4 h. Following incubation, an aliquot of 50 μL was removed from each well (plasma and buffer side) and diluted with equal volume of opposite matrix to nullify the matrix effect and subjected for sample extraction.
(§3) All samples were extracted by Protein Precipitation method by adding 200 μL of ice cold Acetonitrile and 50 μL of internal standard (Haloperidol at 0.1 μg/mL) solution. The tubes were vortex mixed thoroughly and centrifuged at 10000 rpm, 4° C. for 10 minutes. A clear supernatant of 200 μL of samples were submitted for LC-MS/MS analysis.
A general note: In equilibrium dialysis only unbound substance equilibrates across the membrane.

Data set [15] can be described thus: Rat plasma protein binding (Rapid Equilibrium Dialysis). Type of data set: in vitro ADME. The settings on record: pH 7.4, RED device, 37° C. How it is done:
as §2, §3

The conditions of data set [16]: mice; cited from earlier work.

T1 sequence (P08684 whole entry): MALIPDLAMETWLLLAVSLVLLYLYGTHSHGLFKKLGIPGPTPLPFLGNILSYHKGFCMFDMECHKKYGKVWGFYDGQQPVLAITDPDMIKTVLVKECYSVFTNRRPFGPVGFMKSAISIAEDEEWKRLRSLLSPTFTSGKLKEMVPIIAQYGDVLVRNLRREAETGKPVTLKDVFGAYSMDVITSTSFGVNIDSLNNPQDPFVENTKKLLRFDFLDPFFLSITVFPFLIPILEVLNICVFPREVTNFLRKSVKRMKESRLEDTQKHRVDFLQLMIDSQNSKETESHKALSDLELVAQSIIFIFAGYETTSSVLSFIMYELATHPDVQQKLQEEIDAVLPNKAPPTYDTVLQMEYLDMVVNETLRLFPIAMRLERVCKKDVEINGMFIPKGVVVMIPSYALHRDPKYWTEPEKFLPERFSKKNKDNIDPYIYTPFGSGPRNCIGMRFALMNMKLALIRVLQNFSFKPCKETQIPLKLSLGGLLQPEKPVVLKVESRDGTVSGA

By IC50 is commonly meant the concentration that inhibits the measured activity by half. The low end stands for greater potency, the high end for weaker potency. As a reminder, the AUC(0-inf) is total exposure, with the tail of the curve extrapolated. A lower AUC(0-inf) goes with less exposure. In general, AUC(0-t) refers to the area under the concentration-time curve up to a stated or last time point. A low value points to less exposure. In general, Cmax refers to the maximum level reached in the sampled fluid or tissue. The term MRT last denotes a mean duration of stay, worked out from the concentration-time curve. By Tmax is commonly meant the time from dosing to the highest level. Usually half-life stands for the time needed for the level to fall by half in the phase considered. The low end stands for rapid decline, the high end for slow decline. For orientation: fraction unbound means the share of the substance not bound to proteins or other matrix. For `Cc1cc(NCc2ccncc2)n2nc(C)c(-c3ccc4c(c3)c(C)nn4C)c2n1` [Comp. Y, 3-(1,3-dimethyl-1H-indazol-5-yl)-2,5-dimethyl-N-[(pyridin-4-yl)methyl]pyrazolo[1,5-a]pyrimidin-7-amine, reference compound], the inhibition at 0.01 µM in data set [1] came out at 100%; in data set [2], 100%; in [3], 85%; in data set [4], 87%; in data set [5] it was 100%; in [6], 100%. In addition, the inhibition at 0.01 µM in data set [7] worked out at 100%; in data set [8], 85%; in [9], 100%. Moreover, the inhibition at 0.1 µM came out at 100% in data set [1]; 100% in data set [2]; 80% in [3]; 86% in data set [4]; 100% in data set [5]; 100% in data set [6]. In addition, the inhibition at 0.1 µM in data set [7], in data set [8] and in data set [9] was 100% in each case. The same compound had an IC50 in data set [10] of 0.28 µM. In data set [11], this compound had an AUC(0-inf) of 15.5 ± 1.9 µg·h/mL. In addition, in data set [11], the area under the curve AUC(0-t) is 14.8 ± 2.6 µg·h/mL. In data set [11], this compound had an AUCextrap of 4.6 ± 5.6%. This compound had a Cmax in data set [11] of 2.3 ± 0.3 µg/mL. In [11], this compound displayed an MRT last of 4.4 ± 1.1 h. Besides, the Tmax in [11] turned out to be 1.2 ± 0.8 h. Moreover, the half-life in data set [11] is 3.4 ± 1.2 h. The “% remaining after incubation for 60 min, Human microsomes” value in data set [12] was 86.2%. Besides, the “% remaining after incubation for 60 min, Rat microsomes” value in data set [13] was 89.7%. Moreover, the fraction unbound at 4 h, 10 μM in data set [14] was 0.027; in data set [15], 0.024.
`Cc1cc(CNc2cc(C)nc3c(-c4ccc5c(c4)c(C)nn5C)c(C)nn23)ccn1` [Ex. 4, 3-(1,3-dimethyl-1H-indazol-5-yl)-2,5-dimethyl-N-[(2-methylpyridin-4-yl)methyl]pyrazolo[1,5-a]pyrimidin-7-amine]: the inhibition at 0.01 µM was 100% in data set [1]; 100% in data set [2]; 81% in data set [3]; 76% in [4]; 100% in data set [5]; 100% in data set [6]. Also, the inhibition at 0.01 µM in data set [7] was 100%; in [8], 74%; in data set [9] it was 100%. Moreover, the inhibition at 0.1 µM in [1] came out at 100%; in data set [2], 100%; in data set [3] it was 70%; in data set [4], 79%; in data set [5] it was 100%; in [6], 100%. The inhibition at 0.1 µM in data set [7], in data set [8] and in data set [9] was 100% each time. In addition, the IC50 in data set [10] was more than 25 µM. In data set [11], this compound registered an AUC(0-inf) of 27.4 ± 10.1 µg·h/mL. The area under the curve AUC(0-t) in data set [11] was found to be 25.2 ± 10 µg·h/mL. Also, the AUCextrap in [11] amounted to 8.5 ± 5.2%. Also, the highest level in data set [11] (Cmax) was 2.5 ± 0.9 µg/mL. For the same compound, in data set [11], the MRT last was 6.7 ± 0.6 h. The Tmax in [11] was determined as 1.3 ± 0.6 h. The compound also gave a half-life in data set [11] of 6.8 ± 1.5 h. The “% remaining after incubation for 60 min, Human microsomes” value in data set [12] stood at 90.0%. Moreover, in data set [13], the “% remaining after incubation for 60 min, Rat microsomes” value amounted to 84.0%. In addition, the fraction unbound at 4 h, 10 μM in data set [14] was 0.015; in [15], 0.017.
Turning to `COc1ccc(-c2c(C)nn3c(NCCN4CCOCC4)cc(C)nc23)cc1OC` [T-00127-HEV1, 3-(3,4-dimethoxyphenyl)-2,5-dimethyl-N-(2-morpholinoethyl)pyrazolo[1,5-a]pyrimidin-7-amine], the “mortality when tested in-vivo” value in data set [16] was “induced mortality in mice”.

The values are drawn from US12319696B2, “2,6-dimethyl-n-((pyridin-4-yl)methyl)imidazo[1,2-b]pyridazin-8-amine and 2,5-dimethyl-n-[(pyridin-4-yl)methyl]pyrazolo[1,5-a]pyrimidin-7-amine derivatives for treating viral infections” (CUROVIR AB, priority 2018, dated 2025).
